Source: PubChem BioAssay AID1322 (NMMLSC, 2008)
Active and inactive are the calls of the source. No rule for the calls is given here.

Molecular target: Bcl-2-like protein 1 (Homo sapiens) (UniProt Q07817)
Assay: Bim-Bcl-XL interaction inhibitors, potency, dose response, biochemical, multiplexed, bead flow cytometry, human Bcl-XL (AID 1322); as to inhibition: test concentration not given here
Settings: Bead-based flow cytometry, Bim peptide-Bcl-XL binding, MCF

Bcl-2-like protein 1 (Homo sapiens), sequence (Q07817 whole entry, looked up): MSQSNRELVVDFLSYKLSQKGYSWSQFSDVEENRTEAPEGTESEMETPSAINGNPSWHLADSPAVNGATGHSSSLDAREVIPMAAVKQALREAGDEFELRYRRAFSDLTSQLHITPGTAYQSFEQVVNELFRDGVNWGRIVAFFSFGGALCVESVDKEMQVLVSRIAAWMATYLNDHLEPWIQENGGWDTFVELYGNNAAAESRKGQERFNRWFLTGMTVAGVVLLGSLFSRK

outcome, inactive:
Cc1ccc(NC(=S)N2CCn3cccc3C2c2cccnc2)cc1 (configuration not stated), COc1ccc(S(=O)(=O)NCCOc2cccc3cccnc23)cc1OC, CCSc1ncnc2sc(C)c(C)c12, O=C(O)c1cccc(NC2=C(Cl)C(=O)c3ccccc3C2=O)c1, O=C(N/N=C/c1cccnc1)c1cccc(S(=O)(=O)N2CCCC2)c1, COc1ccc(N2CCN(C(CNS(=O)(=O)c3ccc4c(c3)OCCO4)c3ccco3)CC2)cc1 (configuration not stated), CCOc1ncccc1C(=O)OC(C)C(=O)Nc1ccc(CC)cc1 (configuration not stated), CN(C)CCNC(=O)C(=O)C1C(=O)Nc2ccccc21 (configuration not stated), O=C(c1cccc(Br)c1)N1CCN(c2cnn(-c3ccccc3)c(=O)c2Cl)CC1, CSc1n[nH]c2nc3c(c(=O)n12)C1(CCCC1)Cc1ccccc1-3, CCCCc1ccc(NC(=S)NCc2ccc(OC)cc2)cc1, CC(C(=O)Nc1cc([N+](=O)[O-])ccc1Cl)N1CCN(c2ccc(O)cc2)CC1 (configuration not stated), O=C(CCCN1C(=O)c2cccc3cccc(c23)C1=O)N1CCN(c2ccccn2)CC1, CC1CCN(C2(O)C(=O)Nc3ccc(Br)cc32)CC1 (configuration not stated), C=CCN1C(=O)/C(=C/c2ccsc2)SC1=S, Cn1c(CCNC(=O)C2CCCCC2)nc2cc(NC(=O)c3cccs3)ccc21, CCOc1ccc(-n2cc(-c3ccc(OC)c(OC)c3)[nH]c2=S)cc1, CCC(=O)OCCNc1cc(Sc2nccn2C)c2nonc2c1[N+](=O)[O-], C=CS(=O)(=O)c1sc(Cl)c(N2CCOCC2)c1[N+](=O)[O-]

Same assay, conditions: Bead-based flow cytometry, Bim peptide-Bcl-XL binding, MCF

inhibition, inactive:
CCC(=O)NC(c1ccc(C)cc1)c1cc([N+](=O)[O-])c2cccnc2c1O (configuration not stated), CCC(CC)C(=O)Nc1cccc(S(=O)(=O)c2cccc(NC(=O)C(CC)CC)c2)c1, S=C(Nc1ccccc1)N1CCn2cccc2C1c1cccnc1 (configuration not stated), CCN(CC)c1ccc(NC(=O)c2ccccc2)cc1S(=O)(=O)Nc1ccccc1OC, Cc1ccc(-c2ccc(CCC(=O)O)n2NC(=O)c2cccs2)cc1, C/C(=N\NC(=O)COc1ccc(C(C)(C)C)cc1)c1ccc2c(c1)OCCO2, CCC(=O)OCCNc1cc(Sc2nc3ccccc3[nH]2)c2nonc2c1[N+](=O)[O-], Cc1ccc(-c2cc(-c3ccc4c(c3)OCO4)c(C#N)c(N)n2)o1, C/C(=C\c1ccco1)C1Nc2cccc3cccc(c23)N1, COc1ccc(OC)c(-n2c(-c3ccc(C)cc3)n[nH]c2=S)c1, CCc1ccc(NC(=O)CC2NCCNC2=O)cc1 (configuration not stated), CCCCOc1ccc(Cc2c(Cl)nc(SC)nc2N2CCOCC2)cc1, COc1ccc(C(=O)Nc2ccc(C(=O)OCC(=O)c3cccc4ccccc34)cc2)cc1, COc1cc(CNc2ccc(N3CCCC3)cc2)cc(Cl)c1OC, Cc1ccc(-c2cc(C(=O)Nc3ccccc3C)c3ccccc3n2)o1, CN(C)/C=C/C(=O)c1ccc(C(F)(F)F)cc1F, COCCNC(=O)CN1CCC(NC(=O)Nc2ccccc2)CC1, Cc1ccc(-c2cc(-c3ccc(F)cc3)c(C#N)c(N)n2)o1, Cc1cc(-c2csc(N)n2)c(C)n1CCc1ccccc1, COc1ccc(C2C(C#N)=C(C)NC3=C2S(=O)(=O)c2ccccc23)cc1 (configuration not stated), O=C(OCC(=O)c1ccc[nH]1)c1ccccc1, O=C(O)c1ccc(NC2=C/C(=N/S(=O)(=O)c3ccccc3)c3ccccc3C2=O)cc1, Cc1ccccc1/C=N/Nc1ccnc2cc(Cl)ccc12, O=C(c1ccccc1NS(=O)(=O)c1ccc(Br)s1)N1CCCC1, Cc1ccc(-c2cc(-c3ccc(Cl)cc3)c(C#N)c(N)n2)o1, CCc1nnc(NS(=O)(=O)c2ccc(N=CC3=C(O)CC(C)(C)CC3=O)cc2)s1, CNC(=O)c1sc(-c2ccccn2)nc1C, Cc1ccnc(NS(=O)(=O)c2ccc(NC(=O)c3c(-c4ccccc4Cl)noc3C)cc2)n1, O=[N+]([O-])c1ccc(N/N=C/c2ccc(O)c(O)c2O)c(S(=O)(=O)N2CCOCC2)c1, CCC(=O)OCCNc1cc(Sc2nc3ccccc3s2)c2nonc2c1[N+](=O)[O-], O=C1CSc2ccc(C(=O)Nc3cccc(S(=O)(=O)Nc4ccc(Br)cc4)c3)cc2N1, Cc1cc(NC(=O)CCSc2ccccc2)ccc1Br, Cc1csc(Nc2ccccc2C(F)(F)F)n1, COc1ccc(NC(=O)c2cccs2)cc1, CNc1ccc(Br)cc(C(=O)/C=C/c2cccc(OC)c2)c1=O, CCOc1ccc2nc(SCC(=O)N3c4ccccc4Sc4ccccc43)c(C#N)cc2c1, O=C(NCCN1CCOCC1)c1cc(Cl)ccc1[N+](=O)[O-], Cc1nnc(Sc2cc(NCCO)c([N+](=O)[O-])c3nonc23)s1, CCOC(=O)c1snc(-c2ccc(F)cc2)c1N, COc1ccc(NC(=O)Cc2c(F)cccc2Cl)c(OC)c1, COc1ccccc1-n1c(SCC(=O)N2CCc3ccccc32)nc2c(c1=O)SCC2, COc1cc(N=c2ssnc2Cl)cc(OC)c1OC, CCN=c1scc(C)n1/N=C/c1ccc(O)c(O)c1O, Cc1ccccc1-c1nc(-c2ccc(NC(=O)c3ccc4c(c3)OCO4)cc2)no1, Cc1ccc(NC2=C(Cl)C(=O)c3ccccc3C2=O)cc1, CCOC(=O)c1nc(Nc2ccc(Nc3ccccc3)cc2)c2ccccc2n1, Cc1ccc(/C=N/NC(=O)CSc2nnc(-c3ccc(Cl)cc3)n2-c2ccccc2)o1, COC(=O)CCC(=O)Nc1sc(Cc2ccccc2)c(C)c1C(N)=O, CNc1ccc(Br)cc(C(=O)/C=C/c2cccc(OC)c2OC)c1=O, COc1cccc(-n2nnnc2SCC(=O)Nc2cccc(NC(C)=O)c2)c1, Cc1ccc(-c2cc(C(=O)Nc3cccnc3)c3ccccc3n2)o1, COc1cccc(/C=N/NC(=O)c2cc3cc([N+](=O)[O-])ccc3s2)c1O, COC(=O)CSc1ncnc2c1sc1nc(-c3ccco3)c3c(c12)CC(C)(C)OC3, C=CCSc1nc(N)c2c(C)c(C)sc2n1, COc1ccccc1NC(=O)CSc1nnc(-c2ccco2)n1Cc1ccco1, CNc1ccc(Br)cc(C(=O)/C=C/c2ccc(OC)cc2OC)c1=O, O=C(Cn1cncc1-c1ccc([N+](=O)[O-])cc1)Nc1ccccc1F, Cc1cc(NC(=O)CCCC(=O)N(CC(=O)NC2CCCCC2)c2ccccc2)no1, COc1ccc(OCCNC(=O)c2ccccc2OCC(=O)N2CCCCC2)cc1, Cc1ccc(-c2cc(C(=O)N3CCN(c4ncccn4)CC3)c3cc(Br)ccc3n2)o1, O=C1NC(=S)S/C1=C/c1ccc(N2CCOCC2)o1, Cn1c(=O)c(C(=O)COC(=O)c2cc(-c3ccco3)nc3ccccc23)c(N)n(Cc2ccccc2)c1=O, O=C(Nc1nnc(SCc2ccccn2)s1)C1CC(=O)N(c2ccccc2)C1 (configuration not stated), Cc1nnc(NCc2n[nH]c(=O)c3ccccc23)c2ccccc12, O=C(C1=NN(c2ccccc2)C2C(=O)N(c3ccccc3)C(=O)C12)c1ccccc1 (configuration not stated), COC(=O)c1c(NC(=O)COc2ncnc3ccccc23)sc(C)c1C, COc1ccc(CCNC(=O)c2cc(-c3ccccn3)nc3c(Cl)cccc23)cc1OC, COc1cc(C2Nc3cccc4cccc(c34)N2)ccc1OC(C)=O, O=C(Nc1nnc(COc2ccc(Cl)cc2)s1)c1ccco1, CCCCOC(=O)c1nc(Cl)c(Cl)c(N)c1Cl, Cc1ccc(-c2cc(-c3ccc(F)cc3)nc(N)c2C#N)o1, Cc1ccc(S(=O)(=O)NC(=O)COc2ccccc2C)cc1, Cc1cc(C(=O)NCCCN(C)C)c2ccccc2n1
